The target of this test is T1, STK38 (NDR) (Homo sapiens, UniProt Q15208).
T1 construct: purchased Thermo Fisher Scientific (Life Technologies) SelectScreen
Description: SelectScreen LanthaScreen. The note with it: read-out: % displacement. The test is classed as binding. Put shortly: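 NU5455 was profiled across the SelectScreen Broad panel of kinase activity and binding assays. Z'LYTE reactions such as CSF1R ran at apparent Km ATP, while the Adapta CAMK1 assay used ATP listed as 10. Values are given as percent.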
For orientation: In TR-FRET formats the signal depends on donor and acceptor labels being close together.

SMILES strings stand for the structures.

T1 sequence (Q15208 whole entry): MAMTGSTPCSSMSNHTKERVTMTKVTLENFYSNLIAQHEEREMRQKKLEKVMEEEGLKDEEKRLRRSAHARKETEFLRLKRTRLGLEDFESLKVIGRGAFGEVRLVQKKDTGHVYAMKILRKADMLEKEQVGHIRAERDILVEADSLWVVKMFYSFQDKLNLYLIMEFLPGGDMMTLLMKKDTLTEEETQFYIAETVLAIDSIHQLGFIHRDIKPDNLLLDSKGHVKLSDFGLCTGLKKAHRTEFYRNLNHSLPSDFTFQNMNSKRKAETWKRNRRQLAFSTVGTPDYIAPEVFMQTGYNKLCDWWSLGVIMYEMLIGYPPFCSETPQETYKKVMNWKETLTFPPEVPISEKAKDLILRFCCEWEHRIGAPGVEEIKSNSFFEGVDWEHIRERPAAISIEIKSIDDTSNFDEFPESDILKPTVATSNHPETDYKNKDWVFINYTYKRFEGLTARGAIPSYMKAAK

In the case of `CN(C(=O)CN1CCOCC1)c1ccc2sc3c(-c4cccc5c(=O)cc(N6CC7CCC(C6)O7)oc45)cccc3c2c1` [NU5455], the inhibition at 1 µM is -5.9%.

Values taken from article PMC6934184, “Selective DNA-PKcs inhibition extends the therapeutic index of localized radiotherapy and chemotherapy” (The Journal of Clinical Investigation, 2019).
